What is called IC50 is the concentration that gives 50% inhibition.

Molecules are shown by their SMILES.

human PDE4B1, sequence (Q07343 whole entry): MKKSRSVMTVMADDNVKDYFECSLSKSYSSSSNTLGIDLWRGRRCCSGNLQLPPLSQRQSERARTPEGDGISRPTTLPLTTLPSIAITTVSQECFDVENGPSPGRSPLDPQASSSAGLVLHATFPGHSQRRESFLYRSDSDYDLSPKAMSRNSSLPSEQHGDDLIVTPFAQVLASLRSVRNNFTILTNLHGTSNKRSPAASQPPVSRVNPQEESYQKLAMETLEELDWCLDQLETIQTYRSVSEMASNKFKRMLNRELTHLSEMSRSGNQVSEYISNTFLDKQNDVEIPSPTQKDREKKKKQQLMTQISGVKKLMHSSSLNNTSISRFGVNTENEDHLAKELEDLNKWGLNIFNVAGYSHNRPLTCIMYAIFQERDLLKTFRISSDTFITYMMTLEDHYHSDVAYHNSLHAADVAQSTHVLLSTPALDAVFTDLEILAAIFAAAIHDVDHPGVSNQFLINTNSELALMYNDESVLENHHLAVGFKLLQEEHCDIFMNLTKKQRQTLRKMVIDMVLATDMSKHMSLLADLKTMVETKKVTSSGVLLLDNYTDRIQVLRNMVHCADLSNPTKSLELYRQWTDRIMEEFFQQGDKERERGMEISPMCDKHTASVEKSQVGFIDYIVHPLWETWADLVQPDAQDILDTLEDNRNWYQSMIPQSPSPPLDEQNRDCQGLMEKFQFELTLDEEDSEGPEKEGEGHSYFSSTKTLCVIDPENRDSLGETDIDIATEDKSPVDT

The experiment addresses human PDE4B1 (Homo sapiens (Human), UniProt Q07343). Nature of the experiment: TR-FRET assay using the LANCE Ultra cAMP kit to determine the activity of hPDE4B1. The class given is biochemical. Particulars: IC50 inhibition of PDE4B, mean. The text has this:
TR-FRET Assay Using the LANCE® Ultra cAMP Kit to Determine the Activity of hPDE4B1
The effects of the compounds on the activity of the human PDE4B1 was quantified by measuring the production of 5′AMP from cAMP using a human recombinant enzyme expressed in Sf9 cells and the LANCE® Ultra cAMP kit, a TR-FRET detection method from PerkinElmer. The human PDE4B1 enzyme was purchased from SignalChem Lifesciences (Catalog# P92-31BG, Lot# H296-2).
The test compound, reference compound or water (control) was mixed with the enzyme (0.96 U) in a reaction buffer containing 50 mM Tris-HCl, 50 mM MgCl2 and 5 mM DTT (pH 8.5). Thereafter, the reaction was initiated by addition of 500 nM cAMP (substrate) and the mixture was incubated for 30 minutes at room temperature. For control basal measurements, the enzyme was omitted from the reaction mixture. After 30 minutes, the reaction was stopped and diluted by a factor of 100 with the reaction buffer supplemented with 500 μM IBMX. The fluorescence donor (europium chelate-labeled cAMP) and the fluorescence acceptor (anti-cAMP antibody labeled with the ULight™ dye) were then added together with 500 μM IBMX to a 10 μl aliquot. After 60 minutes, the fluorescence transfer corresponding to the amount of residual cAMP was measured at λex=337 nm, λem=620 nm and λem=665 nm using a microplate reader (PHERAstar, BMG). The enzyme activity was determined by dividing the signal measured at 665 nm by that measured at 620 nm (ratio) multiplied by 10000. The results were expressed as percent inhibition of the control enzyme activity. IC50 values (IC50=concentration causing a half-maximal inhibition of control specific activity) were derived from dose response measurements with ten different concentrations (n=3; N=1-3).
Several compounds according to the invention are tested with above mentioned assay.
Turning to `COc1ccnc(-c2cnc(N3CC4(CC4)c4ccc(C(=O)N5CCNC(=O)C5)cc43)nc2)c1` [Compound 244, 4-[1-[5-(4-Methoxy-pyridin-2-yl)-pyrimidin-2-yl]-spiro[1,2-dihydro-indole-3,1′-cyclopropane]-6-carbonyl]-piperazin-2-one], the IC50 is less than 0.1 µM. The value for `CN(C)C(=O)c1ccc2c(c1)N(c1ncc(-c3cc(N(C)C)ccn3)cn1)CC21CC1` [Compound 271, 1-[5-(4-Dimethylamino-pyridin-2-yl)-pyrimidin-2-yl]-N,N-dimethyl-spiro[1,2-dihydro-indole-3,1′-cyclopropane]-6-carboxylic acid amide] was less than 0.1 µM; that for `CCNc1ccc(F)c(-c2cnc(N3CC4(CC4)c4ccc(C(=O)N(C)CCO)cc43)nc2)c1` [Compound 343, 1-[5-(5-Ethylamino-2-fluoro-phenyl)-pyrimidin-2-yl]-N-(2-hydroxy-ethyl)-N-methyl-spiro[1,2-dihydro-indole-3,1′-cyclopropane]-6-carboxylic acid amide] was less than 0.1 µM. As to `CN(CCO)C(=O)c1ccc2c(c1)N(c1ncc(-c3cccnn3)cn1)CC21CC1` [Compound 262, N-(2-Hydorxy-ethyl)-N-methyl-1-(5-pyridazin-3-yl-pyrimidin-2-yl)-spiro[1,2-dihydro-indole-3,1′-cyclopropane]-6-carboxylic acid amide], the IC50 is less than 0.1 µM. As to `COc1ccnc(-c2cnc(N3CC4(CC4)c4ccc(C(=O)N5CC[C@@H](N)C5)cc43)nc2)c1` [Compound 330, [(3R)-3-Amino-pyrrolidin-1-yl]-[1-[5-(4-methoxy-pyridin-2-yl)-pyrimidin-2-yl]-spiro[1,2-dihydro-indole-3,1′-cyclopropane]-6-yl]-methanone], the IC50 is less than 0.1 µM. With `CCc1ccnc(-c2cnc(N3CC4(CC4)c4ccc(C(=O)N(C)C)cc43)nc2)c1` [Compound 270, 1-[5-(4-Ethyl-pyridin-2-yl)-pyrimidin-2-yl]-N,N-dimethyl-spiro[1,2-dihydro-indole-3,1′-cyclopropane]-6-carboxylic acid amide] the figure was less than 0.1 µM; with `CN(CCO)C(=O)c1ccc2c(c1)N(c1ncc(-c3ccccn3)cn1)CC21CC1` [Compound 229, N-(2-Hydroxy-ethyl)-N-methyl-1-(5-pyridin-2-yl-pyrimidin-2-yl)-spiro[1,2-dihydro-indole-3,1′-cyclopropane]-6-carboxylic acid amide], less than 0.1 µM.

Take `CN(C)c1ccnc(-c2cnc(N3CC4(CC4)c4ccc(C(=O)N5CCCC5)cc43)nc2)c1` [Compound 276, [1-[5-(4-Dimethylamino-pyridin-2-yl)-pyrimidin-2-yl]-spiro[1,2-dihydro-indole-3,1′-cyclopropane]-6-yl]-pyrrolidin-1-yl-methanone]: the half-inhibitory concentration (IC50) is less than 0.1 µM.

In turn, `COc1ccnc(-c2cnc(N3CC4(CC4)c4ccc(C(=O)N(C)CCO)cc43)nc2)c1` [Compound 224, N-(2-hydroxyethyl)-1′-(5-(4-methoxypyridin-2-yl)pyrimidin-2-yl)-N-methylspiro[cyclopropane-1,3′-indoline]-6′-carboxamide] had a half-maximal inhibitory concentration (IC50) of less than 0.1 µM.

Consider `O=C(c1ccc2c(c1)N(c1ncc(-c3ccccc3F)cn1)CC21CC1)N1CCC2(CCCN2)C1` (centres unmarked) [Compound 226, (1,-Diazaspiro[4.4]nonan-7-yl)-[1-[5-(2-fluorophenyl)-pyrimidin-2-yl]-spiro[1,2-dihydro-indole-3,1′-cyclopropane]-6-yl]-methanone], for which the IC50 was in the range of 0.1 to 1 µM. Consider `CN(CCO)C(=O)c1ccc2c(c1)N(c1ncc(-c3cccc([S+](C)[O-])c3)cn1)CC21CC1` (centres unmarked) [Compound 281, N-(2-Hydorxy-ethyl)-N-methyl-1-[5-[3-(methylsulfinyl)-phenyl]pyrimidin-2-yl]-spiro[1,2-dihydro-indole-3,1′-cyclopropane]-6-carboxylic acid amide], for which the half-maximal inhibitory concentration (IC50) is less than 0.1 µM.
